Structures can show the parent of a compound that is named as a salt. Where two headings read alike, the source gives them in different places.
Legend:
[1] = tested on: TNF-α; test: Rat assay: LPS-challenged rats, serum TNF-α by ELISA; assay type: in vivo
[2] = tested on: human TNF; test: TNF inhibition: human whole blood assay; assay type: cell-based; settings: Homo sapiens
Procedure: Human peripheral blood is obtained in heparinized tubes. A 190 μL aliquot of blood is placed in each well of a 96 well u-bottom plate. […] After one hour of incubation at 37° C., […] of lipopolysaccharide (Salmonella typhosa, Sigma) in phosphate buffered saline is added resulting in a final concentration of […]. After four to five hours of incubation at 37° C., the supernatants are harvested and assayed at 1:10 or 1:20 dilutions for human TNF using ELISA.

[3] = target: T1, human p38 kinase alpha (Homo sapiens, UniProt Q16539); test: p38 kinase in vitro assay, phosphorylation of biotinylated PHAS-I with gamma 32P-ATP; assay type: biochemical
T1 construct: The coding region of the human p38a cDNA was obtained by PCR-amplification from RNA isolated from the human monocyte cell line THP.1; GST (N); made in house; host or cells: E. coli DH10B
T1 sequence (Q16539 whole entry): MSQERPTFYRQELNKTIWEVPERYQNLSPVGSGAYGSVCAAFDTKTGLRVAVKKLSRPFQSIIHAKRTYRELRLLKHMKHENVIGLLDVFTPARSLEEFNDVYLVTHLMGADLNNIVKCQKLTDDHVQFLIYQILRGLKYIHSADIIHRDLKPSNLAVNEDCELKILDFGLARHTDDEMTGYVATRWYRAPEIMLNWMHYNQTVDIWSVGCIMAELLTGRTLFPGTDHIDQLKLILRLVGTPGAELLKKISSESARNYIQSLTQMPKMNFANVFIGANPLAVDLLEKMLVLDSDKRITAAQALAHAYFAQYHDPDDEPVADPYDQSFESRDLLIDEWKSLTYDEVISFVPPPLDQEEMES
Summary of the method: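 MKK6-activated human p38α phosphorylates biotinylated PHAS-I with γ-32P-ATP in 25 mM HEPES pH 7.5, 10 mM Mg acetate, 50 μM unlabeled ATP, 1% DMSO, 30 °C for 1 h or overnight. Compounds at 100–0.001 μM (10-fold steps, triplicate); substrate captured on streptavidin filter plates and counted by scintillation.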

[4] = Table 8, human whole blood, LPS, read-out: TNF Inhibition-Human Whole Blood Assay
[5] = Rattus norvegicus, po, Table 9, dose 20 mg/kg
[6] = Table 9, human whole blood, LPS, read-out: TNF Inhibition-Human Whole Blood Assay
[7] = Rattus norvegicus, po, 5 mpk oral gavage, 4 h before LPS challenge, read-out: Rat LPS Model % Inhibition @ dose @ predose time
[8] = TNF production, LPS-stimulated human whole blood, read-out: Human Whole Blood IC50
[9] = read-out: P38 alpha kinase IC50
[10] = Rattus norvegicus, po, read-out: Rat LPS Model % Inhibition @ dose @ predose time
[11] = read-out: Human Whole Blood IC50, μM

| SMILES | inhibition in vivo at 5 mg/kg [1, 7] | IC50 [2, 8] | IC50 [3, 9] | also measured |
| --- | --- | --- | --- | --- |
| COC(=O)N1CCN(c2[nH]nc(-c3ccc(Cl)cc3)c2-c2ccncc2)CC1 [Example A-319, methyl 4-[5-(4-chlorophenyl)-4-(4-pyridinyl)-1H-pyrazol-3-yl]-1-piperazinecarboxylate, monohydrate] |  |  |  | inhibition in vivo at 3 mg/kg ([1]; Rattus norvegicus, po, Table 8, dose 3.0 mg/kg, read-out: Rat LPS Assay % Inhibition): 62%; IC50 [2, 4]: > 25 µM |
| CC1CN(c2[nH]nc(-c3ccc(Cl)cc3)c2-c2ccncc2)CC(C)N1 (centres unmarked) [Example A-342, 1-[5-(4-chlorophenyl)-4-(4-pyridinyl)-1H-pyrazol-3-yl]-3,5-dimethylpiperazine] |  |  |  | inhibition in vivo at 20 mg/kg ([1]; Rattus norvegicus, po, Table 8, dose 20.0 mg/kg): 98%; IC50 [2, 4]: 0.31 µM |
| CCN1CCC(Nc2cc(-c3c[nH]nc3-c3ccc(F)cc3)ccn2)CC1 [Example A-352, N-(1-ethyl-4-piperidinyl)-4-[3-(4-fluorophenyl)-1H-pyrazol-4-yl]-2-pyridinamine] |  |  |  | inhibition in vivo at 20 mg/kg [1, 5]: 36%; IC50 [2, 6]: 9.8 µM |
| OC[C@@H](Cc1ccccc1)Nc1cc(-c2c[nH]nc2-c2ccc(F)cc2)ccn1 [Example A-361, (βR)-β-[[4-[3-(4-fluorophenyl)-1H-pyrazol-4-yl]-2-pyridinyl]amino]benzene propanol] |  |  |  | inhibition in vivo at 20 mg/kg [1, 5]: 9%; IC50 [2, 6]: 1 µM |
| O[C@H]1CC[C@H](Nc2cc(-c3c[nH]nc3-c3ccc(F)cc3)ccn2)CC1 [Example A-386, trans-4-[[4-[3-(4-fluorophenyl)-1-H-pyrazol-4-yl]-2-pyridinyl]amino]cyclohexanol] |  |  |  | inhibition in vivo at 20 mg/kg [1, 5]: 91%; IC50 [2, 6]: 0.16 µM |
| Clc1ccc(-c2n[nH]c(C3CCNCC3)c2-c2ccncc2)cc1 [Example C-74, 5-(4-piperidyl)-4-(4-pyridyl)-3-(4-chlorophenyl)pyrazole hydrochloride] | 54% | 0.56 µM | 0.037 µM |  |
| CN1CCC(c2[nH]nc(-c3ccc(Cl)cc3)c2-c2ccncc2)CC1 [Example C-75] | 71% | 0.4 µM | 0.045 µM |  |
| CC(=O)N1CCC(c2[nH]nc(-c3ccc(Cl)cc3)c2-c2ccncc2)CC1 [Example C-76] | 66% | 3.24 µM | 0.07 µM |  |
| COCC(=O)N1CCC(c2[nH]nc(-c3ccc(Cl)cc3)c2-c2ccncc2)CC1 [Example C-77] | 92% | 8.2 µM | 0.071 µM |  |
| CS(=O)(=O)N1CCC(c2[nH]nc(-c3ccc(Cl)cc3)c2-c2ccncc2)CC1 [Example C-78] | 87% | 10.5 µM | 0.068 µM |  |
| COCCN1CCC(c2[nH]nc(-c3ccc(Cl)cc3)c2-c2ccncc2)CC1 [Example C-79] | 83% | 0.52 µM | 0.045 µM |  |
| FC(F)(F)c1ccc(-c2n[nH]c(C3CCNCC3)c2-c2ccncc2)cc1 [Example C-83] | 25% | 1.23 µM | 0.24 µM |  |
| CN1CCC(c2[nH]nc(-c3ccc(C(F)(F)F)cc3)c2-c2ccncc2)CC1 [Example C-84, 5-(N-METHYL-4-(4-PYRIDYL)-4-(4-PYRIDYL)-3-[4-(TRIFLUOROMETHYL)PHENYL]PYRAZOLE] | 22% | 0.88 µM | 0.048 µM |  |
| FC(F)(F)c1cccc(-c2n[nH]c(C3CCNCC3)c2-c2ccncc2)c1 [Example C-86] | 66% | 0.19 µM | 0.007 µM |  |
| Clc1cccc(-c2n[nH]c(C3CCNCC3)c2-c2ccncc2)c1 [Example C-88] | 59% | 0.3 µM | 0.012 µM |  |
| CN1CCC(c2[nH]nc(-c3cccc(Cl)c3)c2-c2ccncc2)CC1 [Example C-89] | 27% | 0.12 µM | 0.039 µM |  |
| CN1CCCC(c2[nH]nc(-c3ccc(F)cc3)c2-c2ccncc2)C1 (centres unmarked) [Example C-91] | 63% | 2.31 µM | 0.054 µM |  |

| SMILES | inhibition in vivo at 5 mg/kg [1, 7] | IC50 [2, 8] | IC50 [3, 9] | also measured |
| --- | --- | --- | --- | --- |
| N[C@H]1CC[C@@H](c2[nH]nc(-c3ccc(Cl)cc3)c2-c2ccncc2)CC1 [Example C-92, 5-cis-(4-AMINOCYCLOHEXYL)-4-(4-PYRIDYL)-3-(4-CHLOROPHENYL)PYRAZOLE] | 66% | 0.28 µM | 0.024 µM |  |
| CN(C)[C@H]1CC[C@@H](c2[nH]nc(-c3ccc(Cl)cc3)c2-c2ccncc2)CC1 [Example C-93, 5-cis-(4-N,N-DIMETHYLAMINOCYCLOHEXYL)-4-(4-PYRIDYL)-3-(4-CHLOROPHENYL)PYRAZOLE] | 50% | 0.38 µM | 0.009 µM |  |
| CC(C)N[C@H]1CC[C@@H](c2[nH]nc(-c3ccc(Cl)cc3)c2-c2ccncc2)CC1 [Example C-94, 5-[cis-4-N-(2-PROPYL)AMINOCYCLOHEXYL]-4-(4-PYRIDYL)-3-(4-CHLOROPHENYL)PYRAZOLE] | 73% | 0.27 µM | 0.02 µM |  |
| CC(=O)N[C@H]1CC[C@@H](c2[nH]nc(-c3ccc(Cl)cc3)c2-c2ccncc2)CC1 [Example C-95, 5- cis-[4-N-(ACETYL)AMINOCYCLOHEXYL]-4-(4-PYRIDYL)-3-(4-CHLOROPHENYL)PYRAZOLE] | 32% | 3.91 µM |  |  |
| COCC(=O)NC1CCC(c2[nH]nc(-c3ccc(Cl)cc3)c2-c2ccncc2)CC1 (stereo not drawn) [Example C-96, 5-cis-[4-N-(METHOXYACETYL)AMINOCYCLOHEXYL]-4-(4-PYRIDYL)-3-(4-CHLOROPHENYL)PYRAZOLE] | 38% | 2.1 µM |  |  |
| CS(=O)(=O)N[C@H]1CC[C@@H](c2[nH]nc(-c3ccc(Cl)cc3)c2-c2ccncc2)CC1 [Example C-97, 5-cis-[4-N-(METHYLSULFONYL)AMINOCYCLOHEXYL]-4-(4-PYRIDYL)-3-(4-CHLOROPHENYL)PYRAZOLE] | 21% | 3.83 µM | 0.025 µM |  |
| N[C@H]1CC[C@@H](c2[nH]nc(-c3ccc(F)cc3)c2-c2ccncc2)CC1 [Example C-98, 5-cis-(4-AMINOCYCLOHEXYL-4-(4-PYRIDYL)-3-(4-FLUOROPHENYL)PYRAZOLE] | 78% | 0.64 µM | 0.016 µM |  |
| CN(C)[C@H]1CC[C@@H](c2[nH]nc(-c3ccc(F)cc3)c2-c2ccncc2)CC1 [Example C-99, 5-(cis-4-N,N-DIMETHYLAMINOCYCLOHEXYL)-4-(4-PYRIDYL)-3-(4-FLUOROPHENYL)PYRAZOLE] | 36% | 0.38 µM | 0.062 µM |  |
| CC(C)N[C@H]1CC[C@@H](c2[nH]nc(-c3ccc(F)cc3)c2-c2ccncc2)CC1 [Example C-100, 5-cis-[4-N-(2-PROPYL)AMINOCYCLOHEXYL]-4-(4-PYRIDYL)-3-(4-FLUOROPHENYL)PYRAZOLE] | 44% | 0.27 µM | 0.027 µM |  |
| N[C@H]1CC[C@@H](c2[nH]nc(-c3ccc(C(F)(F)F)cc3)c2-c2ccncc2)CC1 [Example C-101, 5-cis-(4-AMINOCYCLOHEXYL)-4-(4-PYRIDYL)-3-[4-(TRIFLUOROMETHYL)PHENYL]PYRAZOLE] | 52% | 3.71 µM |  |  |
| CN(C)[C@H]1CC[C@@H](c2[nH]nc(-c3ccc(C(F)(F)F)cc3)c2-c2ccncc2)CC1 [Example C-102, 5-cis-(4-N,N-DIMETHYLAMINOCYCLOHEXYL)-4-(4-PYRIDYL)-3-[4-(TRIFLUOROMETHYL)PHENYL]PYRAZOLE] | 72% | 7.56 µM |  |  |
| CN(C)[C@H]1CC[C@@H](c2[nH]nc(-c3cccc(Cl)c3)c2-c2ccncc2)CC1 [Example C-106, 5-cis-(4-N,N-DIMETHYLAMINOCYCLOHEXYL)-4-(4-PYRIDYL)-3-(3-CHLOROPHENYL)PYRAZOLE] | 23% | 0.44 µM | 0.026 µM |  |
| CC(=N)N1CCC(c2[nH]nc(-c3ccc(F)cc3)c2-c2ccncc2)CC1 [Example C-107] |  |  |  | inhibition in vivo at 5 mg/kg [1, 10]: 11%; IC50 [2, 11]: 0.38 µM; IC50 ([3]; P38 alpha kinase IC50, μM): 0.014 µM |
| N=C(N)N1CCC(c2[nH]nc(-c3ccc(F)cc3)c2-c2ccncc2)CC1 [Example C-108] | 0% | 0.73 µM | 0.02 µM |  |
| CS(=O)(=O)N1CCC(c2[nH]nc(-c3ccc(F)cc3)c2-c2ccncc2)CC1 [Example C-111] | 39% | 6.05 µM | 0.21 µM |  |
| CC(C)(N)C(=O)NCc1[nH]nc(-c2ccc(Cl)cc2)c1-c1ccncc1 [Example C-121] |  |  |  | inhibition in vivo at 5 mg/kg [1, 10]: 39%; IC50 [2, 11]: 15.3 µM |
| O=C(CO)N1CCC(c2[nH]nc(-c3ccc(Cl)cc3)c2-c2ccncn2)CC1 [Example D-2, N-(2-Hydroxyacetyl)-5-(4-piperidyl)-4-(4-pyrimidyl)-3-(4-chlorophenyl)pyrazole hydrochloride] |  |  |  | ratLPS/% Inh @1.0 (mg/kg) ([1]; 1.0 mg/kg oral gavage, 4 hours before LPS challenge, hydrochloride): 89.0%; inhibition in vivo at 5 mg/kg ([1]; Rattus norvegicus, po, 5.0 mg/kg oral gavage, 4 hours before LPS challenge, read-out: ratLPS/% Inh @5.0 (mg/kg)): 95%; IC50 ([2]; TNF production, LPS-stimulated human whole blood, read-out: HWB IC50): 1.79 µM |

From patent US6525059B1, “Substituted pyrazoles as p38 kinase inhibitors” (G. D. Searle & Company, priority 1998, dated 2003)
